One assay has as its system SMS. Conditions: cited from earlier work.
A further assay concerns PKCδ. As to the kind of experiment: Western blot analysis of nuclear PKCδ (PKCδ nuclear translocation) in splenic B cells. It counts as cell-based, mouse. From the text: Generally speaking, PKCs are known to receive DAG on the plasma membrane for their full activation and subsequent subcellular translocation. However, in B cells, the plasma membrane DAG provider that activates PKCδ nuclear translocation is still unknown. Whether SMS2 was the DAG provider for PKCδ activation in mature B cells was therefore tested. In contrast to Sgms2^+/+ naive B cells, nuclear PKCδ was barely detectable in the Sgms2^−/− naive B cells following 24 hr culture. […] This DAG analog-dependent effect supported the involvement of SMS2-derived DAG in activation of PKCδ nuclear translocation.
To further clarify the mechanism that regulates PKCδ activation by SMS2-generated DAG, whether enhancing SMS2 activity could correspondingly increase PKCδ nuclear translocation in cultured Sgms2^+/+ B cells was tested.
293T cells were transfected with plasmid vectors to overexpress FLAG-tagged different SMS2 portions as indicated. Protein lysates from transfected 293T cells were immunoprecipitated with anti-FLAG antibody and then immunoblotted with anti-PKCδ antibody. Sample loading was controlled by inputs of cell lysates. […] Thus, SMS2 is a critical and direct PKCδ activator in mature B cells.
Background: A western blot detects proteins with antibodies after separation by electrophoresis.

A further assay concerns splenic B cells. As to the kind of experiment: Lysenin toxicity assay of surface SM levels in splenic B cells. It counts as cell-based, mouse. Particulars: Sgms2-/- B cells, SM supplementation.
A further assay deals with NZBWF1 mice. As to the kind of experiment: Serum total IgG and anti-dsDNA IgG titers by ELISA in NZBWF1 mice (spontaneous SLE mouse model). It counts as in vivo. Particulars: female NZBWF1 mice, four weeks. From the text:
Given that PKCδ nuclear translocation was promoted by enhancing SMS2 activity with 2OHOA, whether this drug could be adopted to strengthen B cell tolerance in NZBWF1 mice that spontaneously develop SLE due to impaired tolerance caused by multiple genetic variants other than Sgms2 or Prkcd was examined. Remarkably, the expected increase in titers of anti-dsDNA IgGs in the sera of NZBWF1 mice over the same time frame as sham treated mice was impeded by 2OHOA treatment. […] This treatment started when the mouse serum anti-dsDNA IgG level reached the levels between 1,000 ng/ml and 30,000 ng/ml. The titers of serum total IgG and anti-dsDNA IgG were measured by ELISA. Shown in the graph are ratios of the IgG titers after treatment to the titers before treatment. Mann-Whitney test (2 tailed) was used to calculate p values, SEMs, and other parameters as shown in the graph and table. Data represents the results of 15 2OHOA-treated and 10 empty vehicle-treated mice.
On the technique in general: In an ELISA, binding on a coated surface is turned into a signal by an enzyme label.

Another assay concerns the target T1, SMS2 (Mus musculus, UniProt Q9D4B1).
T1 construct: endogenous in cells; host or cells: purified primary splenic B cells from Sgms2+/+ mice (C57BL/6 background); Sgms2-/- B cells as knockout control
T1 sequence (Q9D4B1 1-365): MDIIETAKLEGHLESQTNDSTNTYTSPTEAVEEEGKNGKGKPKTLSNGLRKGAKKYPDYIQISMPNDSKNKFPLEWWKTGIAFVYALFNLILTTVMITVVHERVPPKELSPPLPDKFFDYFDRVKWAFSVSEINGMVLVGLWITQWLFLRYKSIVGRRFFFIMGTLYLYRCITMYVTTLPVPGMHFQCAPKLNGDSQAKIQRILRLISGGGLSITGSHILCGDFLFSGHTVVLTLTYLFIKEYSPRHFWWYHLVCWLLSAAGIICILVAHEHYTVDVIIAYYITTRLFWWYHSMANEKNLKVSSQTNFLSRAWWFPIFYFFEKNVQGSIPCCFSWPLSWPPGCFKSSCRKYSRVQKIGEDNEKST
The assay can be described thus: Elisa analysis of plasma membrane DAG levels in B cells. It counts as cell-based. Conditions: purified Sgms2+/+ B cells.

Where [1] appears, read: as disclosed in U.S. Pat. No. 9,359,281.

Like-named read-outs stand apart in the source and are kept apart here.

`CCCCCCCC/C=C\CCCCCC[C@H](O)C(=O)O` [(S)-2OHOA, (S)-2-hydroxyoleic acid]: the “stimulation of SMS activity” value in the assay on SMS (compared with (R)-2-hydroxyoleic acid or a mixture of the two stereoisomers) was “more strongly stimulates SMS activity”.

For the molecule `C/C=C(/C)C(=O)O[C@H]1C(C)=C[C@]23C(=O)[C@@H](C=C(CO)[C@@H](O)[C@]12O)[C@H]1[C@@H](C[C@H]3C)C1(C)C` [I3A, ingenol-3-angelate], the “nuclear PKCδ” value in the assay with PKCδ (Sgms2+/+ B cells cultured for 30 minutes) and in the assay with PKCδ (Sgms2-/- B cells cultured for 30 minutes) was “increased nuclear PKCδ” in each case.

Take `CC/C=C\C/C=C\C/C=C\CCCCCCC(O)C(=O)O` (stereo not drawn) [2-hydroxy-alpha-linoleic acid]: the “stimulation of SMS activity” value with SMS (setting [1]) is recorded as “stimulate SMS activity”.

Regarding sphingomyelin [SM], the “nuclear PKCδ level” value with PKCδ (Sgms2-/- B cells, SM supplementation 24 hr) was “could not restore”. For the same molecule, the “surface SM level” value in the assay with splenic B cells was “Restoration of surface SM level”.

Regarding `CCCCCC/C=C\CCCCCCC(O)C(=O)O` (stereo not shown) [2-hydroxypalmitoleic acid], in the assay on SMS (setting [1]), the “stimulation of SMS activity” value is listed as “stimulate SMS activity”.

For the molecule `CCCCCCCCCCCCCC(=O)O[C@@H]1[C@@H](C)[C@@]2(O)[C@@H](C=C(CO)C[C@]3(O)C(=O)C(C)=C[C@@H]23)[C@@H]2C(C)(C)[C@]12OC(C)=O` [PMA], the PKCδ nuclear translocation entry is recorded as “promotion of PKCδ nuclear translocation” in the assay on PKCδ (Sgms2+/+ B cells, PMA) and “but not in Sgms2^−/− B cells” in the assay with PKCδ (Sgms2-/- B cells, PMA).

In the case of `CCCCCCCC/C=C\CCCCCCC(O)C(=O)O` (stereo not shown) [2OHOA, 2-hydroxyoleic acid], in the assay with NZBWF1 mice (oral gavage 400 mg/kg per day, vs sham treated mice), the “increase in titers of anti-dsDNA IgGs in the sera” value is on record as “impeded”. In the assay with NZBWF1 mice (oral gavage 400 mg/kg/day), the “total serum IgG titers” value is on record as “without reducing the total serum IgG titers”. In addition, the PKCδ nuclear translocation entry in the assay with PKCδ (Sgms2-/- B cells, 2OHOA-treated) is recorded as “but not in Sgms2^−/− B cells”; with PKCδ (purified Sgms2+/+ B cells, 2OHOA-treated), “increased”. In addition, the “SMS2-derived DAG level (plasma membrane DAG)” value at SMS2 is listed as “increased”.

`CCCCC/C=C\C/C=C\CCCCCCC(O)C(=O)O` (stereo not shown) [2-hydroxylinoleic acid]: the “stimulation of SMS activity” value in the assay with SMS (setting [1]) is “stimulate SMS activity”.

Regarding `CCCCC/C=C\C/C=C\C/C=C\CCCC(O)C(=O)O` (stereo not shown) [2-hydroxy-gamma-linoleic acid], the “stimulation of SMS activity” value in the assay on SMS (setting [1]) is reported as “stimulate SMS activity”.

Source of the values: patent US11771672B2, “Use of 2-hydroxyoleic acid for the treatment of systemic lupus erythematosus and other immune pathologies” (THE RESEARCH FOUNDATION FOR THE STATE UNIVERSITY OF NEW YORK, priority 2017, dated 2023).
